The record followed here is patent US20260200920A1, “SUBSTITUTED AMINOPYRIDINE COMPOUNDS FOR USE AS AKT1 INHIBITORS” (Atavistik Bio, Inc., priority 2023, published 2026).

SMILES strings stand for the structures.

For test [1], the target named is T1, human recombinant kinase full-length AKT1 E17K (Homo sapiens, UniProt P31749, E17K).
T1 construct: Purified human recombinant kinase full-length AKT1 E17K was expressed in insect cells; made in house; host or cells: insect cells
Put plainly: AKT1 E17K kinase assay (TR-FRET, Lance). The note with it: 0.6 nM AKT1 E17K, 50 nM Ulight-CREBtide, either 50 μM ATP or 2 mM ATP, 60 min at RT. Type of test: biochemical. Here is the method: AKT1 E17K kinase assay: Inhibitory effects of compounds on AKT1 E17K were undertaken in a 10-pt dose response kinase activity assay measuring phospho-peptide product formation based on TR-FRET signal as described in the following paragraph.
(§1) Purified human recombinant kinase full-length AKT1 E17K was expressed in insect cells and activated in vitro by PDPK1. Ulight™-CREBtide (PerkinElmer, catalog number TRF0107) was used as the peptide substrate. The reaction buffer consisted of 50 mM HEPES pH 7.5, 10 mM MgCl2, 0.01% Triton X-100, 0.01% BSA, 2 mM DTT, 0.6 nM AKT1 E17K, 50 nM Ulight™-CREBtide and either 50 μM ATP or 2 mM ATP. The compound solution was prepared as 10 mM DMSO stock. For the assay, a 1.3 serial dilution 10-pt dose response of test compounds, in duplicate, for each concentration were dispensed into a 384-well plate (Corning, catalog number 4513). Final DMSO concentration in the assay was 1%. The enzyme mixture (5 μL, 1.2 nM) were added and the mixture was incubated for 15 min at RT prior to the start of the kinase reaction by the addition of 5 μL substrate mixture (100 nM Ulight™-CREBtide). The reaction was stopped after 60 min of incubation at RT by the addition of 10 μL of Detection Mix (PerkinElmer, #CR97-100) consisting of Europium-anti-phospho-CREB (Ser133) (Perkin Elmer, catalog number TRF0200). Incubation with the detection mix for a further 60 min allowed binding of antibody to the phospho-Ulight™ CREBtide. The fluorescence emissions at 620 nm and 665 nm after excitation at 350 nm was measured using Envision reader. The ratio of the emissions at 665 nm and at 620 nm provided the measure for the amount of phosphorylated CREBtide product of AKT1 E17K kinase activity. To determine the IC50 values, the data was normalized (enzyme reaction without inhibitor=0% inhibition, all other assay components but no enzyme=100% inhibition) and IC50 values were calculated by a 4-parameter fit using an in-house developed protocol.
Table 9 assigns each compound a code for potency in the AKT1 E 17K kinase assay: A, B, or C. According to the code, A represents an IC50 value <500 nM; B represents an IC50 value from ≥500 nM to <2000 nM; and C represents an IC50 value ≥2000 nM.

In test [2] the target is T2, human recombinant kinase full-length wildtype AKT1 (Homo sapiens, UniProt P31749).
T2 construct: Purified human recombinant kinase full-length wildtype AKT1 was expressed in insect cells; made in house; host or cells: insect cells
The test is described as follows: AKT1 kinase assay (wildtype, TR-FRET, Lance). The class given is biochemical. To be noted: 0.6 nM wildtype AKT1, 50 nM Ulight-CREBtide, either 50 μM ATP or 2 mM ATP, 60 min at RT. Here is the method: AKT1 kinase assay: Inhibitory effects of compounds on wildtype AKT1 were undertaken in a 10-pt dose response kinase activity assay measuring phospho-peptide product formation based on TR-FRET signal as described in the following paragraph.
as §1, with “full-length wildtype” for “full-length”, “AKT1” for “AKT1 E17K”, “AKT1,50” for “AKT1 E17K, 50”, “1:3” for “1.3”
The symbol +++ represents an IC50 value <20 μM; the symbol ++ represents an IC50 value from ≥20 μM to 80 μM.
Background: TR-FRET usually uses a lanthanide donor and a delayed reading to cut background.

Broadly, the IC50 is the point on the concentration scale where inhibition reaches its midpoint.

T1 sequence (P31749 whole entry E17K): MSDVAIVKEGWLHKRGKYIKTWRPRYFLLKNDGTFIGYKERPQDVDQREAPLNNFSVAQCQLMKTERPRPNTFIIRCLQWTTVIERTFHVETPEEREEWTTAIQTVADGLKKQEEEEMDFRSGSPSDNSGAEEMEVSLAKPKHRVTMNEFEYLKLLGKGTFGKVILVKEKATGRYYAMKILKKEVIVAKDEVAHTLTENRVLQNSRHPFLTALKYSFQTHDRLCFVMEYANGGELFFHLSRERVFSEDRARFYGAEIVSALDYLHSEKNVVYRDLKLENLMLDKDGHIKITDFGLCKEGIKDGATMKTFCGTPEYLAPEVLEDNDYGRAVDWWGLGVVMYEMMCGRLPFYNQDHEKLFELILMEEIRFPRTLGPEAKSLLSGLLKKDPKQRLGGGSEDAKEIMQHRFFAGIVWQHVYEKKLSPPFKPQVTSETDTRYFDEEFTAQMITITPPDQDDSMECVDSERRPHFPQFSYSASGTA
T2 sequence (P31749 whole entry): as the sequence (P31749 whole entry E17K) above, with K17E counted along it

For the molecule `CN(Cc1ccc(-n2c(-c3cccnc3N)nc3ccc(-c4ccccc4)nc32)cc1)[C@@H]1CC[C@@H](C(=O)O)C1` (stereo in doubt) [Compound I-171], the half-inhibitory concentration (IC50) in test [1] was < 500 nM; in test [2] it was < 20000 nM.

As to `CC(C)(C(=O)O)[C@@H]1CCN(Cc2ccc(-n3c(-c4cccnc4N)nc4ccc(-c5ccccc5)nc43)cc2)C1` (stereo in doubt) [Compound I-174], the results for the IC50 in test [1] and in test [2] were 500 to 2000 nM and < 20000 nM, respectively.

For the molecule `CC(C)(C(=O)O)[C@H]1CCN(Cc2ccc(-n3c(-c4cccnc4N)nc4ccc(-c5ccccc5)nc43)cc2)C1` (stereo in doubt) [Compound I-175], the IC50 in test [1] is 500 to 2000 nM; in test [2], < 20000 nM.

As for `Nc1ncccc1-c1nc2ccc(-c3ccccc3)nc2n1-c1ccc(C2CCN(C[C@H]3CCC[C@@H](C(=O)O)C3)CC2)cc1` (stereo in doubt) [Compound I-191], the IC50 was 500 to 2000 nM in test [1] and < 20000 nM in test [2].

For `Nc1ncccc1-c1nc2ccc(-c3ccccc3)nc2n1-c1ccc(C2CCN(C[C@@H]3CCC[C@H](C(=O)O)C3)CC2)cc1` (stereo in doubt) [Compound I-192], the results for the IC50 in test [1] and in test [2] were 500 to 2000 nM and < 20000 nM, respectively.

`Nc1ncccc1-c1nc2ccc(-c3ccccc3)nc2n1-c1ccc(NC(=O)C2CCC(C(=O)O)C2)cc1` (centres unmarked) [Compound I-1, 3-((4-(2-(2-aminopyridin-3-yl)-5-phenyl-3H-imidazo[4,5-b]pyridin-3-yl)phenyl)carbamoyl)cyclopentane-1-carboxylic acid]: the 50% inhibitory concentration (IC50) in test [1] is < 500 nM; in test [2] it was < 20000 nM.

Consider `Nc1ncccc1-c1nc2ccc(-c3ccccc3)nc2n1-c1ccc(NC(=O)[C@H]2CC[C@H](C(=O)O)CC2)cc1` [Compound I-2], for which the results for the IC50 in test [1] and in test [2] were < 500 nM and < 20000 nM, respectively.

Regarding `Nc1ncccc1-c1nc2ccc(-c3ccccc3)nc2n1-c1ccc(NC(=O)[C@H]2CC[C@@H](C(=O)O)CC2)cc1` [Compound I-3, cis-4-[[4-[2-(2-amino-3-pyridyl)-5-phenyl-imidazo[4,5-b]pyridin-3-yl]phenyl]carbamoyl]cyclohexanecarboxylic acid], the half-maximal inhibitory concentration (IC50) was < 500 nM in test [1] and < 20000 nM in test [2].

With `Nc1ncccc1-c1nc2ccc(-c3ccccc3)nc2n1-c1ccc(NC(=O)C2CCCC(C(=O)O)C2)cc1` (centres unmarked) [Compound I-4, 3-[[4-[2-(2-amino-3-pyridyl)-5-phenyl-imidazo[4,5-b]pyridin-3-yl]phenyl]carbamoyl]cyclohexanecarboxylic acid], the figures for the IC50 in test [1] and in test [2] were < 500 nM and < 20000 nM, respectively.

Regarding `Nc1ncccc1-c1nc2ccc(-c3ccccc3)nc2n1-c1ccc(NC(=O)C2CCC(C(=O)O)CC2)cc1F` (centres unmarked) [Compound I-5, 4-((4-(2-(2-aminopyridin-3-yl)-5-phenyl-3H-imidazo[4,5-b]pyridin-3-yl)-3-fluorophenyl)carbamoyl)cyclohexane-1-carboxylic acid], the IC50 is 500 to 2000 nM in test [1] and < 20000 nM in test [2].

As to `Nc1ncccc1-c1nc2ccc(-c3ccccc3)nc2n1-c1ccc(NC(=O)[C@H]2CC[C@H](C(=O)O)CC2)c(F)c1` [Compound I-6, (1r,4r)-4-((4-(2-(2-aminopyridin-3-yl)-5-phenyl-3H-imidazo[4,5-b]pyridin-3-yl)-2-fluorophenyl)carbamoyl)cyclohexane-1-carboxylic acid], the IC50 in test [1] was 500 to 2000 nM; in test [2], < 20000 nM.

`Nc1ncccc1-c1nc2ccc(-c3ccccc3)nc2n1-c1ccc(NC(=O)C23CC(C(=O)O)(C2)C3)nc1` [Compound I-7, 3-((5-(2-(2-aminopyridin-3-yl)-5-phenyl-3H-imidazo[4,5-b]pyridin-3-yl)pyridin-2-yl)carbamoyl)bicyclo[1.1.1]pentane-1-carboxylic acid]: the 50% inhibitory concentration (IC50) in test [1] was ≥ 2000 nM; in test [2] it was 20000 to 80000 nM.

For `Nc1ncccc1-c1nc2ccc(-c3ccccc3)nc2n1-c1ccc(NC(=O)C2CCC(C(=O)O)C2)nc1` (centres unmarked) [Compound I-8, 3-((5-(2-(2-aminopyridin-3-yl)-5-phenyl-3H-imidazo[4,5-b]pyridin-3-yl)pyridin-2-yl)carbamoyl)cyclopentane-1-carboxylic acid], the half-maximal inhibitory concentration (IC50) in test [1] was 500 to 2000 nM; in test [2], < 20000 nM.

As for `Nc1ncccc1-c1nc2ccc(-c3ccccc3)nc2n1-c1ccc(NC(=O)C23CCC(C(=O)O)(C2)C3)nc1` [Compound I-9, 4-((5-(2-(2-aminopyridin-3-yl)-5-phenyl-3H-imidazo[4,5-b]pyridin-3-yl)pyridin-2-yl)carbamoyl)bicyclo[2.1.1]hexane-1-carboxylic acid], the IC50 is 500 to 2000 nM in test [1] and < 20000 nM in test [2].

Consider `Nc1ncccc1-c1nc2ccc(-c3ccccc3)nc2n1-c1ccc(NC(=O)[C@H]2CC[C@H](C(=O)O)CC2)nc1` [Compound I-10, (1r,4r)-4-((5-(2-(2-aminopyridin-3-yl)-5-phenyl-3H-imidazo[4,5-b]pyridin-3-yl)pyridin-2-yl)carbamoyl)cyclohexane-1-carboxylic acid], for which the values for the concentration for half-maximal inhibition (IC50) in test [1] and in test [2] were < 500 nM and < 20000 nM, respectively.

On to `Nc1ncccc1-c1nc2ccc(-c3ccccc3)nc2n1-c1ccc(NC(=O)C2CCCC(C(=O)O)C2)nc1` (centres unmarked) [Compound I-11, 3-((5-(2-(2-aminopyridin-3-yl)-5-phenyl-3H-imidazo[4,5-b]pyridin-3-yl)pyridin-2-yl)carbamoyl)cyclohexane-1-carboxylic acid], for which the values for the IC50 in test [1] and in test [2] were < 500 nM and < 20000 nM, respectively.

Turning to `Nc1ncccc1-c1nc2ccc(-c3ccccc3)nc2n1-c1ccc(NCC2CCC(C(=O)O)CC2)nc1` (centres unmarked) [Compound I-12, 4-(((5-(2-(2-aminopyridin-3-yl)-5-phenyl-3H-imidazo[4,5-b]pyridin-3-yl)pyridin-2-yl)amino)methyl)cyclohexane-1-carboxylic acid], the results for the half-maximal inhibitory concentration (IC50) in test [1] and in test [2] were < 500 nM and < 20000 nM, respectively.

As to `Nc1ncccc1-c1nc2ccc(-c3ccccc3)nc2n1-c1ccc(NC2CCC(C(=O)O)C2)nc1` (centres unmarked) [Compound I-13, 3-((5-(2-(2-aminopyridin-3-yl)-5-phenyl-3H-imidazo[4,5-b]pyridin-3-yl)pyridin-2-yl)amino)cyclopentane-1-carboxylic acid], the IC50 in test [1] is ≥ 2000 nM; in test [2], < 20000 nM.

With `Nc1ncccc1-c1nc2ccc(-c3ccccc3)nc2n1-c1ccc(C(=O)N[C@H]2CC[C@H](C(=O)O)CC2)cc1` [Compound I-16, (1r,4r)-4-(4-(2-(2-aminopyridin-3-yl)-5-phenyl-3H-imidazo[4,5-b]pyridin-3-yl)benzamido)cyclohexane-1-carboxylic acid], the IC50 in test [1] is < 500 nM; in test [2] it was < 20000 nM.
